The record followed here is patent publication US10206399B2, “Herbicidal composition comprising uracil compound as active ingredient” (Dongbu Farm Hannong Co., Ltd., priority 2012, dated 2019).

Where two headings read alike, the source gives them in different places.

The subject of assay [1] is Echinochloa crus. The conditions noted are these: for plant mortality, measured value: Echinochloa crus.
Description: (§1) X is % damage by uracil compound (a) of formula 1 at the rate of application of p kg/ha; Y is % damage by conventional herbicidal compound (b) at the rate of application of q kg/ha; and E is the expected damage caused by compounds (a) and (b) at a rate of application of p and q kg/ha.
(§2) The expected activity for a given combination of two herbicides can be calculated using equation 1 above.
For assay [2], the system named is Xanthium spinosum.
Description: as §1, §2
For assay [3], the system named is Abutilon theophrasti.
Description: as §1, §2
In assay [4] the test system is Aeschynomene indica.
Description: as §1, §2
The subject of assay [5] is Digitaria sanguinalis. The conditions noted are these: for plant mortality, measured value: Digitaria sanguinalis.
Description: as §1, §2
Assay [6] concerns Echinochloa crus. Description: Paddy field farming herbicidal composition test, plant mortality. The class given is in vivo.
Description: as §1, §2
For assay [7], the system named is Monochoria vaginalis. The assay is described as above. The class given is in vivo.
Description: as §1, §2
In assay [8] the test system is Xanthium spinosum. The experiment in a line: whole plant or invertebrate.
Description: as §1, §2
Assay [9] relates to Aeschynomene indica. The experiment in a line: whole plant or invertebrate.
Description: as §1, §2
For assay [10], the system named is Abutilon theophrasti. Description: whole plant or invertebrate.
Description: as §1, §2
Where [11] appears, read: Echinochloa, read-out: Echinochloa crus mortality, measured value.
Where [12] appears, read: Pontederia vaginalis, read-out: Monochoria vaginalis mortality (measured value).
[13] abbreviates: read-out: plant mortality, measured value, 20 g/ha.
[14] abbreviates: read-out: plant mortality, measured value, 40 g/ha.
The mark [15] stands for this setting: read-out: plant mortality, measured value, 80 g/ha.

For the compound `O=C(O)COc1ccc(Cl)cc1Cl` [2,4-D)], the “Data (measured value) Echinochloa crus” value in assay [1] (200 g/ha) and in assay [1] (400 g/ha) was 0 each time. Besides, the “Data (measured value) Xanthium spinosum” value in assay [2] (200 g/ha) was determined as 22; in assay [2] (400 g/ha), 50. Besides, the “Data (measured value) Abutilon theophrasti” value was determined as 21 in [3] (200 g/ha) and 47 in [3] (400 g/ha). Besides, the results for the “Data (measured value) Aeschynomene indica” value in assay [4] (200 g/ha) and in assay [4] (400 g/ha) were 24 and 51, respectively. In addition, the “Data (measured value) Digitaria sanguinalis” value in assay [5] (200 g/ha) and in [5] (400 g/ha) was 0 each time.
As for `COP(=S)(OC)SCC(=O)N(c1ccc(Cl)cc1)C(C)(C)C` [Anilofos], the pest or weed control at 75 g/ha in [6] (setting [11]) is 50%; in [7] (setting [12]), 0%.
Regarding `COc1cc(OC)nc(NC(=O)NS(=O)(=O)c2c(-c3nnn(C)n3)cnn2C)n1` [Azimsulfuron], the pest or weed control at 5 g/ha is 30% in assay [6] (Echinochloa, 5 g/ha, read-out: Echinochloa crus mortality (measured value)) and 50% in [7] (Pontederia vaginalis, 5 g/ha, read-out: Monochoria vaginalis mortality (measured value)).
Turning to `CS(=O)(=O)c1ccc(C(=O)C2=C(Sc3ccccc3)C3CCC(C3)C2=O)c(Cl)c1` (stereo not shown) [Benzobicyclon], the “Echinochloa crus mortality, measured value” (shortened to “Echinochloa crus mortality”) in [6] (50 g/ha) came out at 0. In addition, the “Monochoria vaginalis mortality (measured value)” value (from here on “Monochoria vaginalis mortality”) in [7] (50 g/ha) was 30.
Take `CC(C)(NC(=O)C(Br)C(C)(C)C)c1ccccc1` (stereo not shown) [Bromobutide]: the pest or weed control at 225 g/ha in assay [6] (Echinochloa, 225 g/ha, read-out: Echinochloa crus mortality (measured value)) was 0%; in assay [7] (Pontederia vaginalis, 225 g/ha, read-out: Monochoria vaginalis mortality (measured value)), 50%.
For the compound `C=CCOC(=O)C(C)(C)OC(=O)c1cc(-n2c(=O)cc(C(F)(F)F)n(C)c2=O)ccc1Cl` [Butafenacil], the pest or weed control at 4 g/ha in [8] (read-out: plant mortality, measured value, 4 g/ha) amounted to 15%. Moreover, the pest or weed control at 16 g/ha in assay [8] (read-out: plant mortality, measured value, 16 g/ha) is 54%. Also, the figures for the pest or weed control at 20 g/ha in assay [8] (setting [13]), in [9] (setting [13]) and in assay [10] (setting [13]) were 42%, 51% and 55%, respectively. Also, the pest or weed control at 40 g/ha in assay [8] (setting [14]) is 90%; in [9] (setting [14]), 99%; in assay [10] (setting [14]), 94%. In addition, the pest or weed control at 80 g/ha in assay [8] (setting [15]), in assay [9] (setting [15]) and in assay [10] (setting [15]) was 100% in each case. Also, the “plant mortality, measured value” in assay [1] (4 g/ha) was found to be 0; in [1] (8 g/ha), 0; in [1] (20 g/ha), 12; in assay [1] (40 g/ha), 30; in [1] (80 g/ha), 53; in assay [3] (20 g/ha, Abutilon theophrasti), 55. Further, the “plant mortality, measured value” in [5] (4 g/ha) worked out at 0; in assay [5] (20 g/ha) it was 12; in assay [5] (40 g/ha) it was 40; in [5] (80 g/ha), 70. Besides, in assay [9] (read-out: plant mortality, measured value, 8 g/ha), the pest or weed control at 8 g/ha came to 45%.
As for `CCN(CC)C(=O)n1cnc(S(=O)(=O)c2c(C)cc(C)cc2C)n1` [Cafenstrole], the values for the pest or weed control at 50 g/ha in [6] (setting [11]) and in [7] (setting [12]) were 20% and 30%, respectively.
Turning to `COCCOc1ccccc1S(=O)(=O)NC(=O)N=c1nc(OC)[nH]c(OC)n1` [Cinosulfuron], the pest or weed control at 10 g/ha was 20% in assay [6] (setting [11]) and 30% in [7] (setting [12]).
Regarding `COc1cc(OC)nc(NC(=O)NS(=O)(=O)Nc2ccccc2C(=O)C2CC2)n1` [Cyclosulfamuron], the pest or weed control at 11 g/ha in assay [6] (Echinochloa, 11 g/ha, read-out: Echinochloa crus mortality (measured value)) stood at 30%; in [7] (Pontederia vaginalis, 11 g/ha, read-out: Monochoria vaginalis mortality (measured value)) it was 50%.
Take `CCN(C(=O)SCc1ccccc1)C(C)C(C)C` (stereo not shown) [Esprocarb]: the pest or weed control at 500 g/ha in [6] (setting [11]) stood at 20%; in assay [7] (setting [12]), 30%.
`CCOc1ccccc1OS(=O)(=O)NC(=O)Nc1nc(OC)cc(OC)n1` [Ethoxysulfuron]: the pest or weed control at 15 g/ha was 10% in [6] (setting [11]) and 20% in assay [7] (setting [12]).
Regarding `CCN(C(=O)n1nnn(-c2ccccc2Cl)c1=O)C1CCCCC1` [Fentrazamide], the pest or weed control at 50 g/ha came to 20% in assay [6] (setting [11]) and 30% in assay [7] (setting [12]).
Consider `COc1cc(OC)nc(NC(=O)NS(=O)(=O)c2c(C(=O)O)c(Cl)nn2C)n1` [Halosulfuron], for which the pest or weed control at 11 g/ha in [6] (setting [11]) and in [7] (setting [12]) was 30% each time.
As for `COc1cc(OC)nc(NC(=O)NS(=O)(=O)c2c(Cl)nc3ccccn23)n1` [Imazosulfuron], the pest or weed control at 18 g/ha in assay [6] (Echinochloa, 18 g/ha, read-out: Echinochloa crus mortality (measured value)) was 20%; in assay [7] (Pontederia vaginalis, 18 g/ha, read-out: Monochoria vaginalis mortality (measured value)), 40%.
For the compound `CCC1(CC2(c3cccc(Cl)c3)CO2)C(=O)c2ccccc2C1=O` (stereo not shown) [Indanofan], the pest or weed control at 37.5 g/ha in [6] (setting [11]) is 25%; in assay [7] (setting [12]), 0%.
Take `CN(C(=O)COc1nc2ccccc2s1)c1ccccc1` [Mefenacet]: the pest or weed control at 200 g/ha in assay [6] (setting [11]) and in [7] (setting [12]) was 30% in each case.
Turning to `COc1cc(OC)nc(NC(=O)NS(=O)(=O)c2c(C3=NOCC(C)O3)c(Cl)nn2C)n1` (stereo not shown) [Metazosulfuron], the “Echinochloa crus mortality” value in [6] (25 g/ha) amounted to 35. The “Monochoria vaginalis mortality” value in assay [7] (25 g/ha) is 40.
Take `COc1cc(OC)nc(NC(=O)NS(=O)(=O)Nc2ccccc2C(=O)N(C)C)n1` [Orthosulfamuron]: in assay [6] (17.5 g/ha), the “Echinochloa crus mortality” value worked out at 10. Moreover, the “Monochoria vaginalis mortality” value in [7] (17.5 g/ha) is reported as 40.
Consider `CC1=C(c2ccccc2)C(=O)N(C(C)(C)c2cc(Cl)cc(Cl)c2)CO1` [Oxaziclomefone], for which the pest or weed control at 12.5 g/ha in [6] (Echinochloa, 12.5 g/ha, read-out: Echinochloa crus mortality (measured value)) was found to be 30%; in assay [7] (Pontederia vaginalis, 12.5 g/ha, read-out: Monochoria vaginalis mortality (measured value)) it was 0%.
Turning to `CCCc1ccc2nc(Cl)c(S(=O)(=O)NC(=O)Nc3nc(OC)cc(OC)n3)n2n1` [Propyrisulfuron], in assay [6] (18 g/ha), the “Echinochloa crus mortality” value is 45. Also, in assay [7] (18 g/ha), the “Monochoria vaginalis mortality” value is listed as 45.
On to `COc1cccc(N(C)C(=S)Oc2cccc(C(C)(C)C)c2)n1` [Pyributicarb], for which the pest or weed control at 150 g/ha in [6] (Echinochloa, 150 g/ha, read-out: Echinochloa crus mortality (measured value)) came to 20%; in assay [7] (Pontederia vaginalis, 150 g/ha, read-out: Monochoria vaginalis mortality (measured value)) it was 20%.
For the compound `CON=C(C)c1cccc(Oc2nc(OC)cc(OC)n2)c1C(=O)O` [Pyriminobac], in assay [6] (11 g/ha), the “Echinochloa crus mortality” value came to 50. For the same compound, the “Monochoria vaginalis mortality” value in assay [7] (11 g/ha) is 0.
As to `COCc1cccc(C(O)c2nc(OC)cc(OC)n2)c1NS(=O)(=O)C(F)F` (stereo not shown) [Pyrimisulfan], in [6] (16.5 g/ha), the “Echinochloa crus mortality” value came to 40. Besides, the “Monochoria vaginalis mortality” value in [7] (16.5 g/ha) was 50.
`COc1cc(OC)nc(Sc2cccc3c2C(=O)OC3C)n1` (stereo not shown) [Pyritlalid]: the “Echinochloa crus mortality” value in assay [6] (37.5 g/ha) came to 30. The “Monochoria vaginalis mortality” value in assay [7] (37.5 g/ha) is recorded as 0.
Take `NC1=C(Cl)C(=O)c2ccccc2C1=O` [Quinoclamine]: the “Echinochloa crus mortality” value in assay [6] (450 g/ha) is 0. Also, the “Monochoria vaginalis mortality” value in [7] (450 g/ha) is 0.
Turning to `COc1nc(OC)nc(C(=O)c2cccc(F)c2N(C)S(=O)(=O)C(F)F)n1` [Triafamone], the “Echinochloa crus mortality” value in assay [6] (12.5 g/ha) turned out to be 50. In addition, in [7] (12.5 g/ha), the “Monochoria vaginalis mortality” value turned out to be 10.
For the compound `CCSC(=O)N1CCCCCC1` [molinate], the values for the pest or weed control at 500 g/ha in assay [6] (setting [11]) and in [7] (setting [12]) were 50% and 0%, respectively.
